What all share (test): growth of human tumour cells (NCI), 48 h
Experiment [1] concerns SNB-75 CNS.
Experiment [2] has as its system MCF7 breast.
For experiment [3], the system named is OVCAR-8 ovarian.
For experiment [4], the system named is COLO 205 colon.
Experiment [5] concerns RPMI-8226 leukemia.
Experiment [6] relates to NCI-H522 lung.
Experiment [7] deals with HOP-92 NSCLC.
Experiment [8] concerns IGROV1 ovarian.
Experiment [9] deals with SK-MEL-5 melanoma.
Experiment [10] relates to SR leukemia.

Values joined by “and” are separate entries in the source; they are usually repeats but may differ in a detail not shown here. Equal entries are not always repeated.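 Test compounds were applied to cells in 96-well plates for 48 hours at 5 doses. At the GI50, growth is halved. TGI: total growth inhibition.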

Regarding `CC1(C)N=C(N)N=C(N)N1c1cccc(CCCCc2ccc(S(=O)(=O)F)cc2Cl)c1`, the GI50 in experiment [1] is 2.74 µM; in [2], 0.577 µM; in experiment [3], 6.17 µM; in experiment [4], 5.37 µM; in experiment [5], 10.8 µM; in [6] it was 3.6 µM. For the same compound, the GI50 in experiment [7] is 14 µM; in experiment [8], 0.313 µM; in [9], 1.87 µM; in experiment [10], 0.456 µM. Further, the TGI in [1] is 23.9 µM; in experiment [2], 15.7 µM; in [3], greater than 61.4 µM; in experiment [4] it was 32.9 µM; in [5] it was 41.9 µM; in experiment [6], 20 µM. The TGI is 47.8 µM in experiment [7], greater than 38.5 µM in experiment [8], 16.4 µM in experiment [9] and greater than 49.5 µM in experiment [10].

With `CCN(CC)CCCC(C)Nc1cnc(C(=O)Nc2cc(F)cc3cccnc23)cn1` (stereo not drawn), the GI50 in experiment [1] is 4.49 µM and 1.45 µM; in [2], 2.1 µM; in experiment [3] it was 7.03 µM and 1.29 µM; in experiment [4], 1.16 µM and 0.461 µM; in experiment [5] it was 2.97 µM and 0.502 µM; in experiment [6] it was 5.51 µM and 1.26 µM. In addition, the GI50 in experiment [7] was 2.43 µM and 1.19 µM; in experiment [8], 3.03 µM and 0.379 µM; in experiment [9], 1.78 µM and 1.58 µM; in experiment [10] it was 2.66 µM and 1.6 µM. Moreover, the TGI in experiment [1] was 20.1 µM and 2.79 µM; in [2], 6.91 µM; in [3], 20.2 µM and 5.77 µM; in experiment [4], 3.57 µM and 2.16 µM; in experiment [5], 12.2 µM and > 20.5 µM; in experiment [6], 19 µM and 2.9 µM. Besides, the TGI in experiment [7] was 14.5 µM and 2.62 µM; in [8], 12 µM and 1.4 µM; in experiment [9], 3.37 µM and 2.95 µM.

In the case of `CCc1ccc(CCC(=O)Nc2ncc(Cc3ccccc3)s2)o1`, the GI50 in experiment [1] is 1.24 µM; in experiment [2], 0.515 µM; in experiment [3], 4.5 µM; in experiment [4], 2.28 µM; in experiment [5], 2.61 µM; in [6], 1.99 µM. Besides, the GI50 in [7] was 18.3 µM; in experiment [8] it was 3.24 µM; in experiment [9], 1.16 µM; in experiment [10], 0.444 µM. Besides, the TGI in [1], in experiment [2], in [3], in experiment [4], in [5] and in experiment [6] was greater than 100 µM each time. For the same compound, the TGI in experiment [7], in experiment [8], in experiment [9] and in [10] was greater than 100 µM throughout.

With `CN1CCN(Cc2ccc(NC(=O)c3[nH]ncc3Nc3ncnc4c3CCC4)cc2)CC1`, the GI50 in [1] was 0.0341 µM; in experiment [2], 0.372 µM; in experiment [3] it was 3.27 µM; in experiment [4], 0.475 µM; in experiment [5] it was 2.82 µM; in [6], 1.54 µM. The GI50 in experiment [7] is 4.43 µM; in experiment [8] it was 1.45 µM; in experiment [9] it was 0.874 µM; in experiment [10], 0.438 µM. The TGI in experiment [1] was 3.2 µM; in [2], 11.1 µM; in experiment [3] it was 13.5 µM; in experiment [4], 2.25 µM; in [5], 7.39 µM; in experiment [6], 8.79 µM. Also, the TGI in [7] amounted to 8.33 µM; in [8], 14.6 µM; in [9], 13.3 µM; in experiment [10], 3.05 µM.

As for `Cn1c2ccc([N+](=O)[O-])cc2c(=O)c2c(O)cc(O)cc21`, the TGI in experiment [1] is 34.7 µM; in experiment [2] it was greater than 100 µM; in experiment [3], 25.9 µM; in experiment [4], greater than 100 µM; in experiment [5], greater than 100 µM; in [6], 24 µM. Also, the TGI was 96.3 µM in experiment [7], 45.3 µM in experiment [8], greater than 100 µM in experiment [9] and greater than 100 µM in [10].

`Cc1ccc(NS(=O)(=O)c2cc(C)ccc2C)cc1`: the GI50 in experiment [1] was 3.15 µM; in experiment [2] it was 3.59 µM; in [3] it was 5.94 µM; in [4] it was 3.49 µM; in [5], 12.7 µM; in experiment [6], 2.02 µM. Also, the GI50 is 12.9 µM in experiment [7], 7.02 µM in [8], 2.79 µM in [9] and 1.18 µM in experiment [10]. Further, the TGI in [1] was 24.8 µM; in experiment [2], 83 µM; in experiment [3], 42.7 µM; in [4], 14.7 µM; in experiment [5] it was greater than 100 µM; in [6] it was 7.61 µM. Besides, the TGI in experiment [7] was 34.6 µM; in experiment [8] it was greater than 100 µM; in [9] it was 13.8 µM; in experiment [10], 16.5 µM.

For `COc1ccc(C(=O)c2cc(OC)c(OC)c(OC)c2)cc1O`, the GI50 in experiment [1] was less than 0.01 µM; in [2], 0.0327 µM; in [3], 0.0427 µM; in [4], 1.36 µM; in experiment [5], 0.0342 µM; in experiment [6], less than 0.0164 µM. The GI50 in experiment [7] is 0.539 µM; in experiment [8] it was 0.278 µM; in [9], 0.0439 µM; in experiment [10], less than 0.01 µM. The TGI in experiment [1] was greater than 100 µM; in [2] it was greater than 100 µM; in [3], greater than 100 µM; in [4] it was 13.3 µM; in experiment [5], greater than 64.9 µM; in experiment [7], greater than 100 µM. For the same compound, the TGI in experiment [8] is greater than 100 µM; in experiment [9], 0.315 µM; in experiment [10], greater than 100 µM.

In the case of `O=C(Nc1ccc2oc(=O)c(C(=O)O)cc2c1)Oc1ccccc1`, the TGI in [1], in [2], in experiment [3], in experiment [4], in [5] and in experiment [6] was greater than 100 µM each time. The TGI in experiment [7], in experiment [8], in experiment [9] and in experiment [10] was greater than 100 µM each time.

The record behind these values is PubChem BioAssay (NCI).
